What was measured:
Assay in all cases: relative viability (nuclei count vs DMSO), 5 days (fraction); higher = more cells survive
[1] = compound: CC1=C(C(=O)N2C=CSC2=N1)CCN3CCC(=C(C4=CC=CC=C4)C5=CC=C(C=C5)F)CC3 + O=C(CCCCCCC(=O)Nc1ccccc1)NO [Vorinostat] (partner 1 µM)
Outline: (§1)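 Nuclei were stained with Hoechst during a one-step fixation (final 0.05% Triton X-100, 1% formaldehyde, 1 ug/ml Hoechst) carried out 5 days after dosing, then counted on 4× images. The cells, lung cancer lines in 1536-well plates, had been dosed by pin tool the day after seeding with one drug alone or a fixed anchor-drug dose plus five library-drug doses (not always all listed) in √10 steps. Relative viability is the nuclei count in treated wells divided by that in vehicle wells, and each value is the median of duplicate plates.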

[2] = compound: CC1=C(C(=O)N2C=CSC2=N1)CCN3CCC(=C(C4=CC=CC=C4)C5=CC=C(C=C5)F)CC3 + Cc1nc(Nc2ncc(C(=O)Nc3c(C)cccc3Cl)s2)cc(N2CCN(CCO)CC2)n1 [Dasatinib] (partner 0.075 µM)
Outline: as §1

[3] = compound: CC1=C(C(=O)N2C=CSC2=N1)CCN3CCC(=C(C4=CC=CC=C4)C5=CC=C(C=C5)F)CC3 + CS(=O)(=O)N1CCN(Cc2cc3nc(-c4cccc5[nH]ncc45)nc(N4CCOCC4)c3s2)CC1 [Pictilisib] (partner 1 µM)
Outline: as §1

[4] = compound: CC1=C(C(=O)N2C=CSC2=N1)CCN3CCC(=C(C4=CC=CC=C4)C5=CC=C(C=C5)F)CC3 + C[C@@H](Oc1cc(-c2cnn(C3CCNCC3)c2)cnc1N)c1c(Cl)ccc(F)c1Cl [Crizotinib] (partner 1 µM)
Outline: as §1

Row | Cell Line | relative viability ([1]; first compound 0.08 µM) | relative viability ([1]; first compound 0.253 µM) | relative viability ([1]; first compound 0.8 µM) | relative viability ([1]; first compound 2.53 µM) | relative viability ([1]; first compound 8 µM) | relative viability ([2]; first compound 0.08 µM) | relative viability ([2]; first compound 0.253 µM) | relative viability ([2]; first compound 0.8 µM) | relative viability ([2]; first compound 2.53 µM) | relative viability ([2]; first compound 8 µM) | relative viability ([3]; first compound 0.08 µM) | relative viability ([3]; first compound 0.253 µM) | relative viability ([3]; first compound 0.8 µM) | relative viability ([3]; first compound 2.53 µM) | relative viability ([3]; first compound 8 µM) | relative viability ([4]; first compound 0.08 µM) | relative viability ([4]; first compound 0.253 µM) | relative viability ([4]; first compound 0.8 µM) | relative viability ([4]; first compound 2.53 µM) | relative viability ([4]; first compound 8 µM)
1 | NCI-H23 | 0.665 | 0.564 | 0.473 | 0.572 | 0.32 | 0.659 | 0.674 | 0.867 | 0.703 | 0.518 | 0.473 | 0.39 | 0.443 | 0.497 | 0.374 | 0.467 | 0.505 | 0.454 | 0.372 | 0.404
2 | NCI-H322M | 0.898 | 0.845 | 0.862 | 0.953 | 0.943 | 0.267 | 0.238 | 0.246 | 0.254 | 0.27 | 0.513 | 0.526 | 0.524 | 0.526 | 0.496 | 0.732 | 0.948 | 0.878 | 0.696 | 0.834
3 | NCI-H358 | 0.687 | 0.753 | 0.808 | 0.885 | 0.441 | 0.175 | 0.21 | 0.133 | 0.153 | 0.218 | 0.301 | 0.338 | 0.326 | 0.38 | 0.305 | 0.455 | 0.327 | 0.413 | 0.548 | 0.609
4 | NCI-H441 | 0.998 | 0.628 | 0.765 | 1.05 | 0.61 | 0.526 | 0.678 | 0.679 | 0.541 | 0.507 |  | 0.519 | 0.464 | 0.563 | 0.366 |  | 0.866 | 0.773 | 0.872 | 0.549
5 | NCI-H460 | 0.516 | 0.352 | 1.05 | 1.22 | 0.261 | 0.508 | 0.444 | 0.486 | 0.574 | 0.395 | 0.326 | 0.329 | 0.329 | 0.366 | 0.209 | 0.597 | 1.16 | 1.09 | 0.794 | 0.188
6 | NCI-H520 | 0.729 | 0.751 | 0.743 | 0.962 | 0.489 | 0.208 | 0.195 | 0.221 | 0.209 | 0.182 | 0.315 | 0.334 | 0.348 | 0.33 | 0.292 | 0.679 | 0.608 | 0.858 | 0.58 | 0.476
7 | NCI-H596 | 0.57 | 0.576 | 0.626 | 0.583 | 0.587 | 0.636 | 0.653 | 0.612 | 0.627 | 0.421 | 0.435 | 0.418 | 0.38 | 0.369 | 0.386 | 1.01 | 1.13 | 0.957 | 1.03 | 0.949
8 | NCI-H647 | 0.681 | 0.574 | 0.603 | 0.514 | 0.333 | 0.12 | 0.15 | 0.167 | 0.18 | 0.0953 | 0.552 | 0.385 | 0.381 | 0.498 | 0.312 | 1.09 | 1.61 | 1.01 | 1.34 | 0.476
